# How the values were obtained:
# ALK wt-TEL Ba/F3 cells = assay: Apoptosis analysis (annexin V-FITC/PI, FACS), ALK wt-TEL Ba/F3; assay type: cell-based; conditions: ALK wt-TEL Ba/F3, 24 h, in words
# Description: After 24–48 h following compound treatment, cells were harvested and stained with annexin V (1:500 diluted in annexin V buffer) for 30 min and PI (1:200) solution for 30 min. 1 × 10^6 cells were analysed using flow cytometric analysis. For the cell cycle arrest analysis, cells were harvested by trypsinisation and fixed with 70% ethanol overnight at −20 °C. The next day, cells were harvested and washed with cold DPBS at 500 × g.
# ALK-F1174L = ALK-F1174L (Homo sapiens, UniProt Q9UM73, F1174L); assay: Radiometric biochemical kinase assay, ALK-F1174L
# Sequence of ALK-F1174L (Q9UM73 19-1620 F1174L): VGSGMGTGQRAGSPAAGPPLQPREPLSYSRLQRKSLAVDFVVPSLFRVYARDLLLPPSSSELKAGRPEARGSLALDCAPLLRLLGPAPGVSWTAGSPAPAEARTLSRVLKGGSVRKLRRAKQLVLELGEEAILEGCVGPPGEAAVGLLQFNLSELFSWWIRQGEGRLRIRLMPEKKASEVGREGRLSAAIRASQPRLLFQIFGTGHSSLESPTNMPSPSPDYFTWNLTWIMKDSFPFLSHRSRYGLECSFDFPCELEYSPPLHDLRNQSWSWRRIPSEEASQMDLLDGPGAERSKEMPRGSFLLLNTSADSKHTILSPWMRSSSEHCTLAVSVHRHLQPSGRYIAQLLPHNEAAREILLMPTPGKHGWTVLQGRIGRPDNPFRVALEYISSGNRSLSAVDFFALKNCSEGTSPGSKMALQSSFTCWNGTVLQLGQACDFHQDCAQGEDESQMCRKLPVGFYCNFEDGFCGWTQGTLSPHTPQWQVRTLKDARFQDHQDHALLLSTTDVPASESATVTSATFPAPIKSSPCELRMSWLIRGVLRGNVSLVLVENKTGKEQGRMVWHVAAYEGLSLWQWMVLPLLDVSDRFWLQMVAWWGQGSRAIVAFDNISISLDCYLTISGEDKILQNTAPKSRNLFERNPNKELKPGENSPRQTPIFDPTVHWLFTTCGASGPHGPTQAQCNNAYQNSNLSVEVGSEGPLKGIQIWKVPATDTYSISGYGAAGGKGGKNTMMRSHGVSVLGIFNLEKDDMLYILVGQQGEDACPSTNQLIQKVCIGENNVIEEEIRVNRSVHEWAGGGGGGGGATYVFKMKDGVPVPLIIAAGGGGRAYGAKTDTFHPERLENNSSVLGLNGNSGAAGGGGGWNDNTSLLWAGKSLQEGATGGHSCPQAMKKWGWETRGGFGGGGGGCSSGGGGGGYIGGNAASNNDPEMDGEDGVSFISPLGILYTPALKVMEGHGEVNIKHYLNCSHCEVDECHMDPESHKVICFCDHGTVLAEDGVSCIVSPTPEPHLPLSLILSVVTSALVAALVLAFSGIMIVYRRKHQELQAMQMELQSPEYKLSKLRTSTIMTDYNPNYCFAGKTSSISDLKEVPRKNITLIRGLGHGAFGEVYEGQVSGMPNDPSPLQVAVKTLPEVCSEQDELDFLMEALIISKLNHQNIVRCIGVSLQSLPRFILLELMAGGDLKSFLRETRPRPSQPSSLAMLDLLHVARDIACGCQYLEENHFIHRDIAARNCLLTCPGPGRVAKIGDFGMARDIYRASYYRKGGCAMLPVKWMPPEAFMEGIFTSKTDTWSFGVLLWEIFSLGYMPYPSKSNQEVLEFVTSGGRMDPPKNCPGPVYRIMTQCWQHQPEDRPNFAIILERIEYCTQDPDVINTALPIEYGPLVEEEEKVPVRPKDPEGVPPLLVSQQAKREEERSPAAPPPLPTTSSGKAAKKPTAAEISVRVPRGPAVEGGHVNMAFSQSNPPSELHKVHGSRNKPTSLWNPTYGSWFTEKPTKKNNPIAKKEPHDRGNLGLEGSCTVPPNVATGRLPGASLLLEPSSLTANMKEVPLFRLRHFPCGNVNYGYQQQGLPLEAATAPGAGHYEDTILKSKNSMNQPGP
# Description: (§1) Biochemical kinase assay was performed by methods previously reported. Kinase reactions of all test compounds except 10g were carried out at 10 µM ATP. Kinase reaction of 10g was performed at three different concentrations of ATP (10/50/100 µM).
# c-Met = c-Met (Homo sapiens, UniProt P08581); assay: Biochemical kinase assay, c-Met
# Sequence of c-Met (P08581 25-1390): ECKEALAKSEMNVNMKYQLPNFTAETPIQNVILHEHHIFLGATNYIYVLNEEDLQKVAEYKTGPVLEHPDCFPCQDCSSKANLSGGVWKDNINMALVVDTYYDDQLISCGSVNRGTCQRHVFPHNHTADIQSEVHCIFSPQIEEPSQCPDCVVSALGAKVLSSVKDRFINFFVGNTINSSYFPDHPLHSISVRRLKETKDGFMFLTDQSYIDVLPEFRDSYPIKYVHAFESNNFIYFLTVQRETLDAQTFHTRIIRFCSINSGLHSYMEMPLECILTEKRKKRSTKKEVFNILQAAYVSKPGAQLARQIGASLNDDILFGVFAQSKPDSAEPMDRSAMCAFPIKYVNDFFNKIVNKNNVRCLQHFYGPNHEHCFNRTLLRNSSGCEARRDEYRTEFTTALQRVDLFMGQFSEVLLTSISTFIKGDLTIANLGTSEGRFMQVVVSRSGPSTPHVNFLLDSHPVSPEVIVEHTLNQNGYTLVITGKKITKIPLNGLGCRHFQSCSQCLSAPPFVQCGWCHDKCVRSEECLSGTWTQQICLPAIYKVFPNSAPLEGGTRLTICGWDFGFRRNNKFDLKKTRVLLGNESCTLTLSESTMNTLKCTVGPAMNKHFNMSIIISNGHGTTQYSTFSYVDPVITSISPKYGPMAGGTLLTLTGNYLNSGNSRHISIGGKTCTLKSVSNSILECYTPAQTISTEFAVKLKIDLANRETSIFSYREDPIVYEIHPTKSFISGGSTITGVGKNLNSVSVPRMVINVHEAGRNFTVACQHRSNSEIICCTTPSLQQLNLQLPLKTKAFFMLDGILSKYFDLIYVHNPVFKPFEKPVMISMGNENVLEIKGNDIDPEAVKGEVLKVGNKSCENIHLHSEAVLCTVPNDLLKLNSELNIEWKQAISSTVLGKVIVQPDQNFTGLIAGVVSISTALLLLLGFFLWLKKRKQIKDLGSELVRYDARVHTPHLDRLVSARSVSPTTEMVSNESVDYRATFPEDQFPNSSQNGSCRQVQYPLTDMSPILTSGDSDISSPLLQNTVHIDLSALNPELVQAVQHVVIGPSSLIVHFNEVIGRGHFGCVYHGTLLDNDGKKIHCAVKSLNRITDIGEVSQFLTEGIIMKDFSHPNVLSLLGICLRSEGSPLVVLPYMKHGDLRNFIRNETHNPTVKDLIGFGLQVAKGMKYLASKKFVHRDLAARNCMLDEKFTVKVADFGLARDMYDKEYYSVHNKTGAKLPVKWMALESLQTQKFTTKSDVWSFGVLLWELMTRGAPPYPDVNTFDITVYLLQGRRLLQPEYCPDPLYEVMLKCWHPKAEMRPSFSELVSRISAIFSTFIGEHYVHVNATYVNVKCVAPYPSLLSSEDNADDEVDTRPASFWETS
# Description: as §1
# [1] = tested on: ALK L1196M-TEL Ba/F3 cells; assay: Anti-proliferation assay (CTG), ALK L1196M-TEL Ba/F3; assay type: cell-based
# Description: ALK wt-TEL, ALK L1196M-TEL transformed Ba/F3 and H2228 cell lines were cultured in RPMI1640 (Welgene, # LM011-01). […] Parental Ba/F3 cells were cultured in RPMI1640 media supplemented with 10% foetal bovine serum and 1% penicillin/streptomycin solution in the presence of IL-3. The cells were maintained in a humidified atmosphere containing 5% CO2 at 37 °C.
# Cells (ALK wt-TEL, ALK L1196M-TEL and Parental Ba/F3: 1 × 10^4, H2228: 5 × 10^3) were plated in 96 well tissue culture plates. Each compound was added to each well at 10 dose points of three-fold serial dilution in DMSO. After treatment with each compound for 72 h, CTG assay solution (Promega, # G7572) was added to each well.
# [2] = tested on: cleaved PARP and cleaved caspase-3 in ALK wt-TEL and ALK L1196M-TEL Ba/F3 cells; assay: Western blot of apoptosis markers; assay type: cell-based; conditions: 36 h, in words
# Description: Cells were harvested and lysed using IP buffer containing 50 mM HEPES (pH 7.4), 1% Triton X-100, 2 mM EDTA, 150 mM NaCl, 2.5 mM NaF, 5 mM Na3VO4, protease inhibitor cocktail tablet (Roche, # 11–878-580–001). The protein concentration was determined by Bradford assay. Proteins were separated using SDS-PAGE and transferred onto NC membrane. The membranes were blocked using 5% skim milk in TBS-T buffer. The rabbit polyclonal antibody against phospho-ALK (Tyr1604, # 3341), phospho-ERK1/2 (Thr202/Tyr204, # 8544), phospho- PLC-gamma (Tyr783, # 14008), phospho-STAT3 (Tyr705, # 4074) and cleaved caspase3 (# 9661) were purchased from Cell Signalling Technologies, and PARP1/2 (H-250, # sc-7150) and anti-β-actin (# sc-47778) antibody was obtained from Santa Cruz Biotechnology. All primary antibodies were diluted in TBS-T at 1:1000. Each primary antibody was incubated overnight at 4 °C, followed by the secondary antibody treatment for 1 h at room temperature. Secondary antibodies were purchased from genDEPOT. Proteins were detected using ECL substrate, and then exposed to X-ray film.
# c-Src = c-Src (Homo sapiens, UniProt P12931); assay: Biochemical kinase assay, c-Src
# Sequence of c-Src (P12931 whole entry): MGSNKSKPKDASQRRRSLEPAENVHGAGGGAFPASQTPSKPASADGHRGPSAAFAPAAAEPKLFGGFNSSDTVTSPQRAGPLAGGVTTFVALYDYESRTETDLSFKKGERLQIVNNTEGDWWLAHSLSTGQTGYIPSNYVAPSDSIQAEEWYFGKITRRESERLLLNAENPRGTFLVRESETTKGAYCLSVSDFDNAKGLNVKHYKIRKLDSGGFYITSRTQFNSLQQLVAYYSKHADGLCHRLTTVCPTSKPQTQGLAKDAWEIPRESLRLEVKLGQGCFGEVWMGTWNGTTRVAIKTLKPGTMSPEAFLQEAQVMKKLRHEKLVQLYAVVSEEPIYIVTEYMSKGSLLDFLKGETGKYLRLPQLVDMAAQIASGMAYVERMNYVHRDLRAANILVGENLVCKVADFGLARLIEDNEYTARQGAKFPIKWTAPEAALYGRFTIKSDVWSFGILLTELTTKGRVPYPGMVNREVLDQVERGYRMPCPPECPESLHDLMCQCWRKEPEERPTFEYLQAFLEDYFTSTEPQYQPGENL
# Description: as §1
# Lyn = Lyn (Homo sapiens, UniProt P07948); assay: Biochemical kinase assay, Lyn
# Sequence of Lyn (P07948 whole entry): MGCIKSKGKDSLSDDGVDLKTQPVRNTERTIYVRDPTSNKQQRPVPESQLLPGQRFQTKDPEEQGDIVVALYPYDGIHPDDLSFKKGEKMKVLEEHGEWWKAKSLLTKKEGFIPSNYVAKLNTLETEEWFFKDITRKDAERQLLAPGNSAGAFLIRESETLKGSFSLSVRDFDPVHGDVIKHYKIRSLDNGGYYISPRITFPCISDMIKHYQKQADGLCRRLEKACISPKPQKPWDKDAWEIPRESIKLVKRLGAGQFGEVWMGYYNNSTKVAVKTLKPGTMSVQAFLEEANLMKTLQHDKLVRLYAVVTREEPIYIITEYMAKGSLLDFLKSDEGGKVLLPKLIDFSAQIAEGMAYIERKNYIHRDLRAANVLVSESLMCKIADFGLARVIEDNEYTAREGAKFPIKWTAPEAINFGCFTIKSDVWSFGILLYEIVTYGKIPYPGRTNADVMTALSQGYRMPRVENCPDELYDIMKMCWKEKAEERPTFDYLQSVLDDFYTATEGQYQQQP
# Description: as §1
compound,measurement,setting,value
"CN1CCN(c2ccc(C(=O)Nc3n[nH]c4ncc(S(=O)(=O)c5cccc(F)c5)cc34)cc2)CC1 [10g, N-(5-((3-Fluorophenyl)sulfonyl)-1H-pyrazolo[3,4-b]pyridin-3-yl)-4–(4-methylpiperazin-1-yl)benzamide]",number of apoptotic cells (FACS),ALK wt-TEL Ba/F3 cells,increases the number of apoptotic cells in a dose-dependent manner
same,IC50,ALK-F1174L,8.17 nM
same,"selectivity, more potent against ALK-wt than c-Met",c-Met; ALK-wt vs c-Met IC50,over 7000 fold
same,IC50,c-Met; biochemical kinase assay,3780 nM
same,GI50,"[1]; Mus musculus, BaF3, 72 h, CTG, mean ± SD of three independent experiments, read-out: GI50 Ba/F3 cell lines ALKL1196M-TEL",129 ± 20 nM
same,differential cytotoxicity against ALK-L1196M Ba/F3 cells vs. parental Ba/F3 cells compared with crizotinib,[1]; in words,much more favourable differential cytotoxicity
same,levels of cleaved PARP and cleaved caspase-3 (western blot),[2],increases in the levels of cleaved PARP and cleaved caspase-3
same,IC50,c-Src,7 nM
same,IC50,Lyn,33 nM
